Tests used:
Settings in all cases: recombinant human UGT, mean of triplicate
[1] = target: T1, UGT2B7 (Homo sapiens, UniProt P16662); assay: UGT2B7 supersomes-catalyzed 4-MU glucuronidation inhibition
T1 sequence (P16662 24-529): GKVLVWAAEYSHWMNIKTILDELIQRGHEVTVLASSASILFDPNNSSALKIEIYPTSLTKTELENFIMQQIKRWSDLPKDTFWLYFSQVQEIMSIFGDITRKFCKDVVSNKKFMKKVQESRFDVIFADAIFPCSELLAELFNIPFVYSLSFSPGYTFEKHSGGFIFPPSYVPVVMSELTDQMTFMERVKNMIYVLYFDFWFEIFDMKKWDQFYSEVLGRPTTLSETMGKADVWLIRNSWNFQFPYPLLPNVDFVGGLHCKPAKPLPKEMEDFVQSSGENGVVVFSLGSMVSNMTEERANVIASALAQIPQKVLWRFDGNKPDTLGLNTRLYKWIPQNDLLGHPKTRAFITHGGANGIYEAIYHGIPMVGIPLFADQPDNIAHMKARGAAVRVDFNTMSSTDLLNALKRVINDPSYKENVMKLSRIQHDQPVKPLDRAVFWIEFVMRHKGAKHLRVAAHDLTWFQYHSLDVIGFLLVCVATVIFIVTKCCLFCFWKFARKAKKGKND

[2] = target: T2, UGT2B4 (Homo sapiens, UniProt P06133); assay: UGT2B4 supersomes-catalyzed 4-MU glucuronidation inhibition
T2 sequence (P06133 24-528): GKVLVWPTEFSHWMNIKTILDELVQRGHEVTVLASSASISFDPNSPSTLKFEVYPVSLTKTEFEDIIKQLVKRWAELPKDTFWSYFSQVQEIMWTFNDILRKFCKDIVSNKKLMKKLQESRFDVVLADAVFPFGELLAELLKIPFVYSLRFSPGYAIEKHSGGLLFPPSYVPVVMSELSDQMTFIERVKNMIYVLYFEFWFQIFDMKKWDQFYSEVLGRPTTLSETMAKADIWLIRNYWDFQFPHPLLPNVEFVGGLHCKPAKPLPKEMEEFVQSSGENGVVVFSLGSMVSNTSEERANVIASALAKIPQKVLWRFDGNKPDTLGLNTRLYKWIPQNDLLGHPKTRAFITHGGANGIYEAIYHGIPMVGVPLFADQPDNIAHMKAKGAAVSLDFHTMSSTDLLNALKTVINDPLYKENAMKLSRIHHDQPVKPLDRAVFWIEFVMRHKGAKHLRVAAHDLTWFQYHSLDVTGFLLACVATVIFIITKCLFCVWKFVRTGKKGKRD

[3] = target: T3, UGT1A7 (Homo sapiens, UniProt Q9HAW7); assay: UGT1A7 supersomes-catalyzed 4-MU glucuronidation inhibition
T3 sequence (Q9HAW7 26-530): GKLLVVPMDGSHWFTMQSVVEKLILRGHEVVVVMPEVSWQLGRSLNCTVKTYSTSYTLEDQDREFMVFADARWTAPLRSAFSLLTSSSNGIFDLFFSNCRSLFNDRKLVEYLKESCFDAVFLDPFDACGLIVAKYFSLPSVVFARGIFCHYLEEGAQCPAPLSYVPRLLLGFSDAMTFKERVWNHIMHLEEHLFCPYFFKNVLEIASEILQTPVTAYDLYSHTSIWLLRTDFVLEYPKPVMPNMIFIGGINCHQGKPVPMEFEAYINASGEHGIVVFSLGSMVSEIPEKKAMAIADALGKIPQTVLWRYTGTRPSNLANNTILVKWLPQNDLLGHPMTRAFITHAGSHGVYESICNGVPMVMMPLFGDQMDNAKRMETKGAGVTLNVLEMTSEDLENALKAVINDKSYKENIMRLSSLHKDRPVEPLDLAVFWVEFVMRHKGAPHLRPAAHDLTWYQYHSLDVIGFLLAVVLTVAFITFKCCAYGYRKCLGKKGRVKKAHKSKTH

[4] = target: T4, UGT1A1 (Homo sapiens, UniProt P22309); assay: UGT1A1 supersomes-catalyzed 4-MU glucuronidation inhibition
T4 sequence (P22309 26-533): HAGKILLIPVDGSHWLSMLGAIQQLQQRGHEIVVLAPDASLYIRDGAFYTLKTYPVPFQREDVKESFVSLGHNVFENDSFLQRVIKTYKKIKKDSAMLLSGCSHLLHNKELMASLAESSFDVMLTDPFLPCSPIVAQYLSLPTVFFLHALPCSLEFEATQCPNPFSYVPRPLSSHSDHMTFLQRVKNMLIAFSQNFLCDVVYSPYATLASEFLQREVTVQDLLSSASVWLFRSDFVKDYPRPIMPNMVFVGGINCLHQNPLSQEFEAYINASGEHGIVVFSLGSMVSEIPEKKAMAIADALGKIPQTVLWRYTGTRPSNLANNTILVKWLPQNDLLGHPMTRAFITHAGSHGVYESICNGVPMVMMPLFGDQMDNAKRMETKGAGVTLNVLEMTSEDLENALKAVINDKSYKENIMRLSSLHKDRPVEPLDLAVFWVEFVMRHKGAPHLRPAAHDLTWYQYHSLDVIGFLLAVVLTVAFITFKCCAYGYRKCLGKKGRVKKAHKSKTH

[5] = target: T5, UGT1A3 (Homo sapiens, UniProt P35503); assay: UGT1A3 supersomes-catalyzed 4-MU glucuronidation inhibition
T5 sequence (P35503 29-534): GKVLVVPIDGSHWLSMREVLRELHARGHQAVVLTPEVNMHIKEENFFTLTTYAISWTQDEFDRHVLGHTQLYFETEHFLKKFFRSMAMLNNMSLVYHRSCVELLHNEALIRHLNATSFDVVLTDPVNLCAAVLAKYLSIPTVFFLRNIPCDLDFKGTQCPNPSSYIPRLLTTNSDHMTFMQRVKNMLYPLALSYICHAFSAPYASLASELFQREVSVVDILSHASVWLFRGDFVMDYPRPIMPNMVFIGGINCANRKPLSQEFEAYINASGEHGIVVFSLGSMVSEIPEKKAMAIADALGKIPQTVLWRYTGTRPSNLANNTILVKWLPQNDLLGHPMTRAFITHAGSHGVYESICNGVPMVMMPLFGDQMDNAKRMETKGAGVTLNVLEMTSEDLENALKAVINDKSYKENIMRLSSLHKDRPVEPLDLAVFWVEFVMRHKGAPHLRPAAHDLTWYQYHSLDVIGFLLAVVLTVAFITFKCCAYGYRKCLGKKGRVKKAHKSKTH

Row | Compound | residual activity 2B7 ([1]; 50 μM LPC components) | residual activity 2B4 ([2]; 50 μM LPC components) | residual activity 1A7 ([3]; 50 μM LPC components) | residual activity 1A1 ([4]; 50 μM LPC components) | residual activity 1A3 ([5]; 50 μM LPC components) | residual activity 2B7 ([1]; 50 μM PC components) | residual activity 2B4 ([2]; 50 μM PC components) | residual activity 1A7 ([3]; 50 μM PC components) | residual activity 1A1 ([4]; 50 μM PC components) | residual activity 1A3 ([5]; 50 μM PC components)
1 | CCCCCC(=O)OC[C@@H](O)COP(=O)([O-])OCC[N+](C)(C)C [LPC 6:0] | 70.0% | 183.6% | 130.6% | 176.7% | 84.4% |  |  |  |  | 
2 | CCCCCCC(=O)OCC(O)COP(=O)([O-])OCC[N+](C)(C)C (stereo not shown) [LPC 7:0] | 73.8% | 183.5% | 138.3% | 174.9% | 80.4% |  |  |  |  | 
3 | CCCCCCCC(=O)OCC(O)COP(=O)([O-])OCC[N+](C)(C)C (stereo not shown) [LPC 8:0] | 70.1% | 185.0% | 133.3% | 184.9% | 80.3% |  |  |  |  | 
4 | CCCCCCCCC(=O)OC[C@@H](O)COP(=O)([O-])OCC[N+](C)(C)C [LPC 9:0] | 76.2% | 179.1% | 134.9% | 179.6% | 79.6% |  |  |  |  | 
5 | CCCCCCCCCC(=O)OC[C@@H](O)COP(=O)([O-])OCC[N+](C)(C)C [LPC 10:0] | 77.3% | 208.4% | 139.8% | 170.2% | 75.9% |  |  |  |  | 
6 | CCCCCCCCCCC(=O)OC[C@@H](O)COP(=O)([O-])OCC[N+](C)(C)C [LPC 11:0] | 78.0% | 217.6% | 149.9% | 167.3% | 75.9% |  |  |  |  | 
7 | CCCCCCCCCCCC(=O)OC[C@@H](O)COP(=O)([O-])OCC[N+](C)(C)C [LPC 12:0] | 72.8% | 255.5% | 138.6% | 165.9% | 74.8% |  |  |  |  | 
8 | CCCCCCCCCCCCC(=O)OC[C@@H](O)COP(=O)([O-])OCC[N+](C)(C)C [LPC 13:0] | 79.9% | 239.4% | 120.1% | 160.6% | 88.1% |  |  |  |  | 
9 | CCCCCCCCCCCCCC(=O)OC[C@@H](O)COP(=O)([O-])OCC[N+](C)(C)C [LPC 14:0] | 90.5% | 217.1% | 153.6% | 171.3% | 74.2% |  |  |  |  | 
10 | CCCCCCCCCCCCCCC(=O)OC[C@@H](O)COP(=O)([O-])OCC[N+](C)(C)C [LPC 15:0] | 43.9% | 152.6% | 156.2% | 162.9% | 52.8% |  |  |  |  | 
11 | CCCCCCCCCCCCCCCCC(=O)OC[C@@H](O)COP(=O)([O-])OCC[N+](C)(C)C [LPC 17:0] | 81.5% | 333.4% | 164.3% | 167.6% | 119.0% |  |  |  |  | 
12 | CCCCCCCCCCCCCCCCCC(=O)OC[C@@H](O)COP(=O)([O-])OCC[N+](C)(C)C [LPC 18:0] | 39.3% | 280.4% | 133.4% | 160.5% | 72.4% |  |  |  |  | 
13 | CCCCCC(=O)OC[C@H](COP(=O)([O-])OCC[N+](C)(C)C)OC(=O)CCCCC [PC 6:0, 6:0] |  |  |  |  |  | 70.2% | 178.7% | 166.0% | 187.8% | 105.1%
14 | CCCCCCC(=O)OC[C@H](COP(=O)([O-])OCC[N+](C)(C)C)OC(=O)CCCCCC [PC 7:0, 7:0] |  |  |  |  |  | 64.5% | 186.9% | 150.2% | 176.8% | 109.9%
15 | CCCCCCCC(=O)OC[C@H](COP(=O)([O-])OCC[N+](C)(C)C)OC(=O)CCCCCCC [PC 8:0, 8:0] |  |  |  |  |  | 71% | 173.1% | 114.8% | 155.6% | 119.1%
16 | CCCCCCCCC(=O)OC[C@H](COP(=O)([O-])OCC[N+](C)(C)C)OC(=O)CCCCCCCC [PC 9:0, 9:0] |  |  |  |  |  | 79.6% | 156.7% | 137% | 162.3% | 117.7%
17 | CCCCCCCCCC(=O)OC[C@H](COP(=O)([O-])OCC[N+](C)(C)C)OC(=O)CCCCCCCCC [PC 10:0, 10:0] |  |  |  |  |  | 86.2% | 168.4% | 163.2% | 197.9% | 107.4%
18 | CCCCCCCCCCC(=O)OC[C@H](COP(=O)([O-])OCC[N+](C)(C)C)OC(=O)CCCCCCCCCC [PC 11:0, 11:0] |  |  |  |  |  | 100.5% | 181.0% | 175.5% | 232.3% | 110.7%
19 | CCCCCCCCCCCC(=O)OC[C@H](COP(=O)([O-])OCC[N+](C)(C)C)OC(=O)CCCCCCCCCCC [PC 12:0, 12:0] |  |  |  |  |  | 85.8% | 182.7% | 171.4% | 208.8% | 93.0%
20 | CCCCCCCCCCCCC(=O)OC[C@H](COP(=O)([O-])OCC[N+](C)(C)C)OC(=O)CCCCCCCCCCCC [PC 13:0, 13:0] |  |  |  |  |  | 81.4% | 193.8% | 160.6% | 201.1% | 110.7%

From paper PMC6631349 (Xenobiotica; the fate of foreign compounds in biological …, 2014)
